Measurements reported in patent US9663496B2, “AMPK-activating heterocyclic compounds and methods for using the same” (Rigel Pharmaceuticals, Inc., priority 2010, dated 2017).

What follows are compounds tested against AMPK (assay: AMPK activation, enzyme-linked immunosorbent assay). Conditions: EC50 for AMPK activation, ELISA.
Format: biochemical
How it was run: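 Test compounds were added, and kinase activation was then detected by immunoassay following established kit procedures.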

EC50, 5 to 10 µM:
O=C(NC1CCN(Cc2ccccc2)CC1)c1ccc(C(=O)NC2CCN(Cc3ccccc3)CC2)nc1 [Compound 264, N2,N5-bis(1-benzylpiperidin-4-yl)pyridine-2,5-dicarboxamide]

EC50, > 10 µM:
COc1ccc(OC2CCN(C(=O)c3ccc(C(=O)NC4CCN(Cc5ccc(C#N)cc5)CC4)cn3)CC2)c(NC(C)=O)c1 [Compound 383, 6-(4-(2-acetamido-4-methoxyphenoxy)piperidine-1-carbonyl)-N-(1-(4-cyanobenzyl)piperidin-4-yl)nicotinamide]
COc1ccc(OC2CCN(C(=O)c3ccc(C(=O)NC4CCN(Cc5ccc(C#N)cc5)CC4)cn3)CC2)c(NC(=O)CCOCCOCCOCCOCCNC(=O)CCCC[C@@H]2SC[C@@H]3NC(=O)N[C@@H]32)c1 [Compound 394, N-(1-(4-cyanobenzyl)piperidin-4-yl)-6-(4-(4-methoxy-2-(17-oxo-21-((3aS,4S,6aR)-2-oxohexahydro-1H-thieno[3,4-d]imidazol-4-yl)-4,7,10,13-tetraoxa-16-azahenicosanamido)phenoxy)piperidine-1-carbonyl)nicotinamide]
CS(=O)(=O)Nc1ccc(CN2CCC(NC(=O)c3ccc(C(=O)N4CCC(C(=O)c5ccc(F)cc5F)CC4)nc3)CC2)cc1 [Compound 216, 6-(4-(2,4-difluorobenzoyl)piperidine-1-carbonyl)-N-(1-(4-(methylsulfonamido)benzyl)piperidin-4-yl)nicotinamide]

EC50, < 0.5 µM:
CSc1ccc(C(=O)C2CCN(C(=O)c3ccc(C(=O)NC4CCN(Cc5ccc(C#N)cc5)CC4)nc3)CC2)cc1 [Compound 372, N-(1-(4-cyanobenzyl)piperidin-4-yl)-5-(4-(4-(methylthio)benzoyl)piperidine-1-carbonyl)picolinamide]
COc1ccc(C(=O)N2CCN(C(=O)c3ccc(C(=O)NC4CCN(Cc5ccc(C#N)cc5)CC4)nc3)CC2)cc1 [Compound 77, N-(1-(4-cyanobenzyl)piperidin-4-yl)-5-(4-(4-methoxybenzoyl)piperazine-1-carbonyl)picolinamide]
N#Cc1ccc(CN2CCC(NC(=O)c3ccc(C(=O)N4CCC(c5ccc(Cl)cc5)CC4)cn3)CC2)cc1 [Compound 134, 5-(4-(4-chlorophenyl)piperidine-1-carbonyl)-N-(1-(4-cyanobenzyl)piperidin-4-yl)picolinamide]
O=C(Nc1ccc(Oc2ccc(F)cc2)nc1)c1ccc(C(=O)N2CCN(Cc3ccc(F)cc3)CC2)nc1 [Compound 334, 6-(4-(4-fluorobenzyl)piperazine-1-carbonyl)-N-(6-(4-fluorophenoxy)pyridin-3-yl)nicotinamide]
COc1ccc(C(=O)C2CCN(C(=O)c3ccc(C(=O)Nc4ccc(Oc5ccc(C(C)=O)cc5)nc4)cn3)CC2)cc1 [Compound 462, N-(6-(4-acetylphenoxy)pyridin-3-yl)-6-(4-(4-methoxybenzoyl)piperidine-1-carbonyl)nicotinamide]
N#Cc1ccc(O[C@H]2CC[C@@H](NC(=O)c3ccc(C(=O)N4CCC(Oc5ccc(C(F)(F)F)cc5)CC4)cn3)CC2)cc1 [Compound 190, N-((cis)-4-(4-cyanophenoxy)cyclohexyl)-5-(4-(4-(trifluoromethyl)phenoxy)piperidine-1-carbonyl)picolinamide]
COc1ccc(OC2CCN(C(=O)c3ccc(C(=O)NC4CCN(Cc5ccc(F)cc5)CC4)nc3)CC2)cc1 [Compound 183, N-(1-(4-fluorobenzyl)piperidin-4-yl)-5-(4-(4-methoxyphenoxy)piperidine-1-carbonyl)picolinamide]
N#Cc1ccc(CN2CCC(NC(=O)c3ccc(C(=O)N4CCC(Oc5ccc(S(=O)(=O)C(F)(F)F)cc5)CC4)nc3)CC2)cc1 [Compound 450, N-(1-(4-cyanobenzyl)piperidin-4-yl)-6-(4-(4-(trifluoromethylsulfonyl)phenoxy)piperidine-1-carbonyl)nicotinamide]
COc1ccc(C(=O)C2CCN(C(=O)c3ccc(C(=O)NC4CCN(Cc5cccc(OC)c5)CC4)cn3)CC2)cc1 [Compound 425, 6-(4-(4-methoxybenzoyl)piperidine-1-carbonyl)-N-(1-(3-methoxybenzyl)piperidin-4-yl)nicotinamide]
N#Cc1ccc(O[C@H]2CC[C@H](NC(=O)c3ccc(C(=O)N4CCC(C(=O)c5ccc(F)cc5)CC4)cn3)CC2)cc1 [Compound 168, N-((trans)-4-(4-cyanophenoxy)cyclohexyl)-5-(4-(4-fluorobenzoyl)piperidine-1-carbonyl)picolinamide]
CS(=O)(=O)c1ccc(OC2CCN(C(=O)c3ccc(C(=O)Nc4ccc(Oc5ccc(C#N)cc5)nc4)cn3)CC2)cc1 [Compound 459, N-(6-(4-cyanophenoxy)pyridin-3-yl)-6-(4-(4-(methylsulfonyl)phenoxy)piperidine-1-carbonyl)nicotinamide]
N#Cc1ccc(OC2CCN(C(=O)c3ccc(C(=O)NC4CCN(Cc5ccc(N6CCCC6)cc5)CC4)cn3)CC2)cc1 [Compound 336, 6-(4-(4-cyanophenoxy)piperidine-1-carbonyl)-N-(1-(4-(pyrrolidin-1-yl)benzyl)piperidin-4-yl)nicotinamide]
O=C(Nc1ccc(Oc2ccc(F)cc2)nc1)c1ccc(C(=O)N2CCC(Oc3ccc(C(=O)C4CC4)cc3)CC2)nc1 [Compound 457, 6-(4-(4-(cyclopropanecarbonyl)phenoxy)piperidine-1-carbonyl)-N-(6-(4-fluorophenoxy)pyridin-3-yl)nicotinamide]
N#Cc1ccc(O[C@H]2CC[C@@H](NC(=O)c3ccc(C(=O)N4CCN(Cc5ccc(F)cc5)CC4)nc3)CC2)cc1 [Compound 332, N-((cis)-4-(4-cyanophenoxy)cyclohexyl)-6-(4-(4-fluorobenzyl)piperazine-1-carbonyl)nicotinamide]
N#Cc1ccc(CN2CCC(NC(=O)c3ccc(C(=O)N4CCC(C(F)c5ccc(F)cc5)CC4)cn3)CC2)cc1 (centres unmarked) [Compound 138, N-(1-(4-cyanobenzyl)piperidin-4-yl)-5-(4-(fluoro(4-fluorophenyl)methyl)piperidine-1-carbonyl)picolinamide]
N#Cc1ccc(CN2CCC(NC(=O)c3ccc(C(=O)N4CCC(Oc5ccc(C#N)c(Cl)c5)CC4)cn3)CC2)cc1 [Compound 156, 5-(4-(3-chloro-4-cyanophenoxy)piperidine-1-carbonyl)-N-(1-(4-cyanobenzyl)piperidin-4-yl)picolinamide]
CC(=O)c1ccc(OC2CCN(C(=O)c3ccc(C(=O)NC4CCN(Cc5ccc(C#N)cc5)CC4)cn3)CC2)cc1 [Compound 390, 6-(4-(4-acetylphenoxy)piperidine-1-carbonyl)-N-(1-(4-cyanobenzyl)piperidin-4-yl)nicotinamide]
N#Cc1ccc(CN2CCC(NC(=O)c3ccc(N4CCC(C(=O)c5ccc(Cl)cc5)CC4)cn3)CC2)cc1 [Compound 266, 5-(4-(4-chlorobenzoyl)piperidin-1-yl)-N-(1-(4-cyanobenzyl)piperidin-4-yl)picolinamide]
COc1ccc(CN2CCC(NC(=O)c3ccc(C(=O)N4CCC(C(=O)c5ccc(N6CCCC6)cc5)CC4)nc3)CC2)cc1 [Compound 439, N-(1-(4-methoxybenzyl)piperidin-4-yl)-6-(4-(4-(pyrrolidin-1-yl)benzoyl)piperidine-1-carbonyl)nicotinamide]
CC(=O)c1ccc(Oc2ccc(NC(=O)c3ccc(C(=O)N4CCC(Oc5ccc(S(C)(=O)=O)cc5)CC4)cn3)cn2)cc1 [Compound 259, N-(6-(4-acetylphenoxy)pyridin-3-yl)-5-(4-(4-(methylsulfonyl)phenoxy)piperidine-1-carbonyl)picolinamide]
COc1ccc(C(=O)C2CCN(C(=O)c3ccc(C(=O)N[C@H]4CCN(Cc5ccc(C#N)cc5)C[C@H]4F)cn3)CC2)cc1 (relative stereo) [Compound 454, N-((cis)-1-(4-cyanobenzyl)-3-fluoropiperidin-4-yl)-6-(4-(4-methoxybenzoyl)piperidine-1-carbonyl)nicotinamide]
COc1ccc(CN2CCC(NC(=O)c3ccc(C(=O)N4CCC(C(=O)c5ccc(OC)cc5)CC4)nc3)CC2)cc1 [Compound 318, 6-(4-(4-methoxybenzoyl)piperidine-1-carbonyl)-N-(1-(4-methoxybenzyl)piperidin-4-yl)nicotinamide]
CS(=O)(=O)c1ccc(OC2CCN(C(=O)c3ccc(C(=O)NC4CCN(Cc5ccc(C#N)cc5)CC4)nc3)CC2)cc1 [Compound 227, N-(1-(4-cyanobenzyl)piperidin-4-yl)-5-(4-(4-(methylsulfonyl)phenoxy)piperidine-1-carbonyl)picolinamide]
COc1ccc(C(=O)C2CCN(C(=O)c3ccc(C(=O)N[C@@H]4CCN(Cc5ccc(OC(C)C)cc5)C[C@H]4F)cn3)CC2)cc1 (relative stereo) [Compound 353, N-((trans)-3-fluoro-1-(4-isopropoxybenzyl)piperidin-4-yl)-6-(4-(4-methoxybenzoyl)piperidine-1-carbonyl)nicotinamide]

EC50, 1 to 5 µM:
COc1ccc(C(=O)C2CCN(c3ccc(C(=O)N4CCN(Cc5ccc(F)cc5)CC4)cn3)CC2)cc1 [Compound 189, (4-(4-fluorobenzyl)piperazin-1-yl)(6-(4-(4-methoxybenzoyl)piperidin-1-yl)pyridin-3-yl)methanone]
N#Cc1ccc(Oc2ccc(NC(=O)c3ccc(C(=O)N4CCC(S(=O)(=O)c5ccc(F)cc5)CC4)nc3)cn2)cc1 [Compound 472, N-(6-(4-cyanophenoxy)pyridin-3-yl)-6-(4-(4-fluorophenylsulfonyl)piperidine-1-carbonyl)nicotinamide]
N#Cc1ccc(O[C@H]2CC[C@@H](NC(=O)c3ccc(C(=O)N4CC[C@H](Oc5ccc(F)cc5)C4)cn3)CC2)cc1 [Compound 176, N-((cis)-4-(4-cyanophenoxy)cyclohexyl)-5-((S)-3-(4-fluorophenoxy)pyrrolidine-1-carbonyl)picolinamide]
N#Cc1ccc(CN2CCC(NC(=O)c3ccc(C(=O)N4CCN(C(=O)C5CCCCC5)CC4)cn3)CC2)cc1 [Compound 89, N-(1-(4-cyanobenzyl)piperidin-4-yl)-5-(4-(cyclohexanecarbonyl)piperazine-1-carbonyl)picolinamide]
